Test system: participants with SSc-RP
Experiment: Scleroderma Health Assessment Questionnaire (SHAQ): disability indices and visual analog scales
Type: in vivo, human
Text: The standard, validated, patient reported outcome measures tool for SSc patients, the Scleroderma Health Assessment Questionnaire (SHAQ), will be used to assess the participant qualify of life. Details are attached in the Appendix. The participant quality of life will be scored, and a disability index calculated for each questionnaire completed by the patient at Screening and each in-clinic visit. The absolute change in participant quality of life from baseline to the end of each dosing period will be calculated similar to frequency data as before.
The SHAQ includes a Raynaud's VAS, which will be reported at screening and each in-clinic visit. The absolute change in Raynaud-VAS, assessed by the participants response to the SHAQ question ‘In the past 7 days, how much have your Raynaud's interfered with your daily activities?’ at baseline and the end of each dosing period will be calculated similar to frequency data as before.
The SHAQ is used to calculate a Disability Index to assess the participant qualify of life. The eight categories assessed by the Disability Index are 1) dressing and grooming, 2) arising, 3) eating, 4) walking, 5) hygiene, 6) reach, 7) grip, and 8) common daily activities. For each of these categories, patients report the amount of difficulty they have in performing two or three specific activities.
There are four possible responses for the Disability Index questions: • Without any difficulty=0 • With some difficulty=1 • With much difficulty=2 • Unable to do=3. • The highest score reported by the patient for any component question of the eight categories determines the score for that category. • If a component question is left blank or the response is too ambiguous to assign a score, then the score for that category is determined by the remaining completed question(s). • If all component questions are blank or if more than one answer is given, then follow up with the respondent is required. • If the respondent's mark is between the response columns, then move it to the closest one. If it's directly between the two, move it to the higher one.
Each of the disability items on the SHAQ has a companion aids/devices variable that is used to record what type(s) of assistance, if any, the participant uses for his/her usual activities. These variables (see below) are coded as follows: • 0=No assistance is needed. • 1=A special device is used by the patient in his/her usual activities. • 2=The patient usually needs help from another person. • 3=The patient usually needs BOTH a special device AND help from another person.
The scoring variables and scoring rules permit the computation of two disability indices, the Standard Disability Index and the Alternative Disability Index.
This question results in a new set of category scores that are computed by adjusting the score for each category, if necessary, based on the patient's use of an aid or device or assistance for that category. If either devices and/or help from another person are checked for a category, the score is set to “2”, unless the score is already “3” (i.e., scores of “0” or “1” are increased to “2”). For example, if the highest score for the dressing category is “1”, and the patient says they use a device for dressing, the computed category score would be “2”. The sum of the computed categories scores is then calculated and divided by the number of categories answered. This gives a score in the 0 to 3 range.
The aid and device variables are not used to calculate the alternative disability index; it is calculated by adding the scores for each of the categories and dividing by the number of categories answered. This gives a score in the 0 to 3 range.
The standard, validated, patient reported outcome measures tool for SSc patients, the SHAQ, was collected at the time points specified in the study schedules (FIG. 2 and FIGS. 4A and 4B) to assess the participant's quality of life. The SHAQ included a Raynaud's VAS that will also be reported separately.

[1] = Cilnidipine 20 mg, PP Population Part A, SSc patients
[2] = Day 12, Cilnidipine 10 mg (N = 4), Patients with Diagnosis of SSc, PP Population Part A
[3] = Day 12, Cilnidipine 20 mg (N = 4), Patients with Diagnosis of SSc, PP Population Part A
[4] = Day 12, Modified ITT, Part A, dose Cilnidipine 10 mg, Tadalafil 5 mg, or 10 mg + 5 mg
[5] = Day 12, Modified ITT, Part A, dose Cilnidipine 20 mg, or 20 mg + Tadalafil 5 mg

## COCCOC(=O)C1=C(C)NC(C)=C(C(=O)OC/C=C/c2ccccc2)C1c1cccc([N+](=O)[O-])c1 (stereo not shown) [Cilnidipine, cilnidipine]
[1]
  SHAQ Visual Analogue Scale - Finger Ulcers, In-Clinic Visit (Day 12), Mean: 0.650
  SHAQ Visual Analogue Scale - Finger Ulcers, In-Clinic Visit (Day 12), Median: 0.350
  SHAQ Visual Analogue Scale - Intestinal Problems, In-Clinic Visit (Day 12), Mean: 0.850
  SHAQ Visual Analogue Scale - Intestinal Problems, In-Clinic Visit (Day 12), Median: 0.650
  SHAQ Visual Analogue Scale - Overall Disease Severity, In-Clinic Visit (Day 12), Mean: 1.125
  SHAQ Visual Analogue Scale - Overall Disease Severity, In-Clinic Visit (Day 12), Median: 1.300
  SHAQ Visual Analogue Scale - Pain, In-Clinic Visit (Day 12), Mean: 1.875
  SHAQ Visual Analogue Scale - Pain, In-Clinic Visit (Day 12), Median: 1.400
  SHAQ Visual Analogue Scale - Raynaud's, In-Clinic Visit (Day 12), Mean: 1.875
  SHAQ Visual Analogue Scale - Raynaud's, In-Clinic Visit (Day 12), Median: 1.250
[2]
  SHAQ Alternative Disability Index, Change from Baseline, Mean: 0.063
  SHAQ Alternative Disability Index, Change from Baseline, Median: 0.000
  SHAQ Alternative Disability Index, Percent Change from Baseline, Mean: 15.87%
  SHAQ Alternative Disability Index, Percent Change from Baseline, Median: 15.87%
  SHAQ Standard Disability Index, Change from Baseline, Mean: 0.000
  SHAQ Standard Disability Index, Change from Baseline, Median: 0.000
  SHAQ Standard Disability Index, Percent Change from Baseline, Mean: 0.00%
  SHAQ Standard Disability Index, Percent Change from Baseline, Median: 0.00%
[3]
  SHAQ Alternative Disability Index, Change from Baseline, Mean: 0.000
  SHAQ Alternative Disability Index, Change from Baseline, Median: −0.063
  SHAQ Alternative Disability Index, Percent Change from Baseline, Mean: 5.56%
  SHAQ Alternative Disability Index, Percent Change from Baseline, Median: −33.33%
  SHAQ Standard Disability Index, Change from Baseline, Mean: −0.063
  SHAQ Standard Disability Index, Change from Baseline, Median: −0.063
  SHAQ Standard Disability Index, Percent Change from Baseline, Mean: −26.67%
  SHAQ Standard Disability Index, Percent Change from Baseline, Median: −33.33%
[4]
  SHAQ Alternative Disability Index, Change from Baseline, Mean: 0.063
  SHAQ Alternative Disability Index, Change from Baseline, Median: 0.000
  SHAQ Alternative Disability Index, Percent Change from Baseline, Mean: 15.87%
  SHAQ Alternative Disability Index, Percent Change from Baseline, Median: 15.87%
  SHAQ Finger Ulcers, Change from Baseline, Mean: −0.425
  SHAQ Finger Ulcers, Change from Baseline, Median: −0.350
  SHAQ Finger Ulcers, Percent Change from Baseline, Mean: −69.44%
  SHAQ Finger Ulcers, Percent Change from Baseline, Median: −69.44%
  SHAQ Standard Disability Index, Change from Baseline, Mean: 0.0
  SHAQ Standard Disability Index, Change from Baseline, Median: 0.000
  SHAQ Standard Disability Index, Percent Change from Baseline, Mean: 0.0%
  SHAQ Standard Disability Index, Percent Change from Baseline, Median: 0.00%
  SHAQ Visual Analog Scale-Breathing Problems, Change from Baseline, Mean: −0.300
  SHAQ Visual Analog Scale-Breathing Problems, Change from Baseline, Median: 0.000
  SHAQ Visual Analog Scale-Breathing Problems, Percent Change from Baseline, Mean: −16.00%
  SHAQ Visual Analog Scale-Breathing Problems, Percent Change from Baseline, Median: −16.00%
  SHAQ Visual Analog Scale-Intestinal Problems, Change from Baseline, Mean: −1.875
  SHAQ Visual Analog Scale-Intestinal Problems, Change from Baseline, Median: −1.550
  SHAQ Visual Analog Scale-Intestinal Problems, Percent Change from Baseline, Mean: −77.37%
  SHAQ Visual Analog Scale-Intestinal Problems, Percent Change from Baseline, Median: −88.00%
  SHAQ Visual Analog Scale-Pain, Change from Baseline, Mean: −0.100
  SHAQ Visual Analog Scale-Pain, Change from Baseline, Median: 0.000
  SHAQ Visual Analog Scale-Pain, Percent Change from Baseline, Mean: −9.88%
  SHAQ Visual Analog Scale-Pain, Percent Change from Baseline, Median: 0.00%
  SHAQ Visual Analog Scale-Raynaud's, Change from Baseline, Mean: 0.325
  SHAQ Visual Analog Scale-Raynaud's, Change from Baseline, Median: 0.350
  SHAQ Visual Analog Scale-Raynaud's, Percent Change from Baseline, Mean: 11.36%
  SHAQ Visual Analog Scale-Raynaud's, Percent Change from Baseline, Median: −2.27%
[5]
  SHAQ Alternative Disability Index, Change from Baseline, Mean: −0.083
  SHAQ Alternative Disability Index, Change from Baseline, Median: −0.125
  SHAQ Alternative Disability Index, Percent Change from Baseline, Mean: −41.67%
  SHAQ Alternative Disability Index, Percent Change from Baseline, Median: −41.67%
  SHAQ Finger Ulcers, Change from Baseline, Mean: −0.933
  SHAQ Finger Ulcers, Change from Baseline, Median: 0.000
  SHAQ Finger Ulcers, Percent Change from Baseline, Mean: 35.29%

From US20240358693A1, “METHODS OF TREATING PAIN” (Aisa Pharma, Inc., priority 2023, published 2024)
